“Also recorded” adds a separate entry of the source.
Experiments:
[1] = cited from earlier work
[2] = tested on: oligodendrocyte precursors (ODPCs) from EB-derived cells; assay: Generation of iODPCs from EB-derived cells treated with S18 and S1P or S1P analogs; assay type: cell-based, mouse; details: for effect on the number of ODPCs / ODPCs [% of total cells]: S1P 1 μM, VPC24191 or SEW2871 300 nM, FTY720 300 nM; for increase of the number of oligodendrocyte precursors (ODPCs): in vitro, combination with S18; for ODPCs [% of total cells]: in combination with S18, n=4 independent experiments
Procedure: Pre-implantation blastocyst-derived ES cells (ES-J1, Rosa26, E14) were grown on γ-irradiated feeder fibroblasts, and neural differentiation was induced by serum deprivation of EBs as previously described. Attached EBs were dissociated and EB-derived cells (EBCs) plated on polyornithin/laminin-coated dishes. At this stage, cells were grown in DMEM/F12 supplemented with N2 and FGF-2 (EB medium). EBCs acquire all characteristics of genuine NPCs, including expression of nestin. Sox1, and FGFR1. In the presence of FGF-2, NPCs can be dissociated and propagated at >80% homogeneity.
(§1) This protocol was modified using S18 or S1P (or its analogs) for incubation of differentiating ES cells at the EB stage prior to and after dissociation. After incubation with 50-100 μM S18 and/or 0.1-2 μM S1P or S1P analogs for 48 h, EBCs were dissociated and then immediately re-plated, and further incubated with NP medium supplemented with 50-100 μM S18 and 0.1-2 μM S1P or S1P analogs. NPCs were either transplanted into brain or spinal cord or in vitro differentiated in differentiation medium.
For incubation with S18 and S1P (or S1P) analogs add: 50-100 μM S18; 0.1-2 μM S1P or S1P analogs (FTY720, SEW2871, VPC24191 or related compounds) to EB and NP medium. The incubation time can vary from 24-72 h.
(§2) In vitro, treatment with a combination of S18 and S1P or S1P analogs (FTY720, VPC24191, SEW2871) increases the number of oligodendrocyte precursors (ODPCs) by about 20-fold (Table 1). […] This observation was unexpected and novel, because it has not been shown before that combined treatment with S18 and S1P analogs can enrich for ODPCs.

[3] = tested on: EB-derived cells (EBCs); assay: S18-induced apoptosis / elimination of EB-derived cell sub-populations and protection by S1P analogs; assay type: cell-based, mouse; details: for protection of S18-sensitive NPCs (NPC2) from apoptosis: added to medium with S18
Procedure: FIG. 4 illustrates making sphingolipid-enhanced neural stem cells (SENSe). FIG. 4A illustrates that mouse ES cells were differentiated to the attached EB stage and immunocytochemistry performed using antibodies against Oct-4 and S1P1. NPC2 cells show Oct-4(−) and S1P1(+). […] Expression of S1P1 protects them from S18-induced apoptosis if S1P or its analogs are added to the medium. FIG. 4B provides that there are three sub-populations of EB-derived cells (EBCs): 1) Residual pluripotent (Oct-4(+)/PAR-4(+)/S1P1(−) cells. […] They are not protected by S1P1; 2) NPC1 cells are Oct-4(−)/PAR-4(−)/S1P1(+) and represent nestin-expressing neural progenitors. […] FIG. 4C illustrates that NPC2 cells are stained for A2B5 epitope, a marker for oligodendrocyte precursor cells.
as §1, §2

[4] = tested on: EB-derived cells (EBCs); details: stage of forming NPCs; ref [5]; cited from earlier work
[5] = tested on: primitive ectoderm cells; details: suspension EBs; ref [3]; cited from earlier work

Row | Structure (SMILES) | effect on the number of ODPCs [2] | increase of the number of oligodendrocyte precursors (ODPCs) [2] | ODPCs [% of total cells] ([2]; VPC23019 2 μM) | other results
1 | CCCCCCCCCCCCC/C=C/[C@@H](O)[C@H](CO)NC(C)=O [C2 ceramide, N-acetyl sphingosine] |  |  |  | water solubility compared with physiological ceramide species (e.g. C16 ceramide) [1]: several-fold higher
2 | CCCCCCCCc1ccc(CCC(N)(CO)CO)cc1 [FTY720, 2-amino-2-[2-(4-octylphenyl)ethyl]propane-1,3-diol] | elevate the number of ODPCs | about 20 fold |  | protection of S18-sensitive NPCs (NPC2) from apoptosis [3]: rescue S18-sensitive NPCs from apoptosis; also recorded: can be protected
3 | CCCCCCCCCCCCC/C=C/[C@@H](O)[C@@H](N)COP(=O)(O)O [S1P, sphingosine-1-phosphate] | elevate the number of ODPCs | about 20 fold | 12 +/− 3% | protection of S18-sensitive NPCs (NPC2) from apoptosis [3]: rescue S18-sensitive NPCs from apoptosis; also recorded: can be protected
4 | CCCCCCCC/C=C\CCCCCCCC(=O)NC(CO)CO [S18, N-(2-hydroxy-1-(hydroxymethyl)ethyl)-oleoylamide] |  |  |  | elimination of Oct-4(+) cells from differentiating ES cells [4]: eliminates Oct-4(+) cells; primitive ectoderm formation after ceramide depletion [5]: restores primitive ectoderm formation; S18-induced apoptosis in NPC1 (Oct-4(−)/PAR-4(−)/S1P1(+)) cells [3]: do not undergo S18-induced apoptosis; elimination of teratoma-forming residual pluripotent (Oct-4(+)/PAR-4(+)/S1P1(−)) cells ([3]; ES cell graft / EB-derived cells): specifically eliminate teratoma-forming cells; also recorded: are eliminated by S18; elimination of NPC2 (Oct-4(−)/PAR-4(+)/S1P1(+)) cells ([3]; without S1P or FTY720): is also eliminated by S18; also recorded: are eliminated by S18
5 | FC(F)(F)c1cccc(-c2noc(-c3cc(-c4ccccc4)c(C(F)(F)F)s3)n2)c1 [SEW2871] | elevate the number of ODPCs | about 20 fold | 18 +/− 3% | 
6 | CCCCCCCCc1cccc(NC(=O)[C@H](N)COP(=O)(O)O)c1 [VPC23019] |  |  |  | effect of S1P1 antagonist on the S1P and FTY720 effect ([2]; VPC23019 2 μM): inhibits the effect of S1P and FTY720
7 | CCCCCCCCc1ccc(NC[C@H](N)COP(=O)(O)O)cc1 [VPC24191] | elevate the number of ODPCs | about 20 fold | 28 +/− 5% | 
